# Tests used:
# wildtype zebrafish = assay: Initial dose-finding study in adult fish, daily oral gavage, survival; format: in vivo; details: daily gavage of quizartinib at 10 mg/kg, enasidenib at 100 mg/kg, 14 days
# Method: Drugs at three concentrations (0.01 μM, 0.1 μM and 1 μM) were added to the embryos in E3 medium with (1-phenyl-2-thiourea) PTU at 6 hpf, and the medium was changed every 24 hours. At 4 dpf, embryos were collected and fixed in 4% PFA for SSB staining. […] Adult zebrafish were anesthetized using 0.015% Tricaine. […] Treated zebrafish were then placed into an individual recovery tank with fresh sterile fish water immediately after the gavage procedure. The drug regimen was repeated daily for 14 days. The gavage apparatus was consisted of a 10 μl microliter syringe (Gaoge, Shanghai, China) and a polyethylene tubing (BTPE-50, INTECH, USA), and was adapted from Collymore et al., 2013 and Dang, Michelle, et al., 2016.
# [1] = test system: Tg(Runx1:FLT3^ITDIDH2^R140Q) zebrafish; assay: 14-day oral gavage treatment of adult Tg(Runx1:FLT3^ITDIDH2^R140Q) fish; format: in vivo; details: adult Tg(Runx1:FLT3^ITD IDH2^R140Q) double mutant; treatment with Quizartinib and/or Enasidenib, 14 days
# Method: (§1) Zebrafish WKM were harvested from two to twelve months old transgenic or wildtype TU fish. The collected KM was dissociated in 0.9×PBS with 5% fetal bovine serum (FBS) by pipetting and filtered through a 40 μm nylon cell strainer (Corning, NY, USA). The cells were then centrifuged at 500 g for 5 minutes, resuspended, filtered, and washed with 0.9×PBS with 5% (FBS) at least twice. Flow cytometry of the KM was performed using a MoFlo XDP flow cytometer (Beckman coulter). The data was analyzed using FlowJo™ v10.6.1 software. Cytospin preparations were made with 2×10^5 to 3×10^5 cells cytocentrifuged at 400 rpm for 5 minutes onto microscope glass slides (Thermo scientific). The glass slides were dried at room temperature for more than 12 hours, stained with Wright-Giemsa stain, and imaged with Nikon DS-Ri2 digital camera fitted to a Nikon Eclipse Ni-U microscope.
# (§2) Drugs at three concentrations (0.01 μM, 0.1 μM and 1 μM) were added to the embryos in E3 medium with (1-phenyl-2-thiourea) PTU at 6 hpf, and the medium was changed every 24 hours. At 4 dpf, embryos were collected and fixed in 4% PFA for SSB staining. […] Adult zebrafish were anesthetized using 0.015% Tricaine. […] Treated zebrafish were then placed into an individual recovery tank with fresh sterile fish water immediately after the gavage procedure. The drug regimen was repeated daily for 14 days.
# [2] = test system: Tg(Runx1:FLT3^ITDIDH2^R172K) zebrafish; assay: 14-day oral gavage treatment of adult Tg(Runx1:FLT3^ITDIDH2^R172K) fish; format: in vivo; details: adult Tg(Runx1:FLT3^ITDIDH2^R172K) double mutants; treatment with Quizartinib and/or Enasidenib, 14 days
# Method: as §1, §2
# [3] = test system: FLT3^ITD and IDH2 double mutant zebrafish; assay: 14-day oral gavage treatment of adult double transgenic leukemic fish, kidney marrow analysis; format: in vivo; details: daily oral gavage 14 days, quizartinib 10 mg/kg, enasidenib 100 mg/kg
# Method: as §1, §2
# [4] = test system: Tg(Runx1:FLT3^ITDIDH2^R172K) and Tg(Runx1:FLT3^ITDIDH2^R140Q) embryos; assay: Drug treatment of double transgenic embryos, SBB staining as surrogate for embryonic myelopoiesis; format: in vivo, zebrafish; details: drugs at 0.01 μM, 0.1 μM and 1 μM from 6 hpf, stained at 4 dpf
# Method: as §2
SMILES,fish survival (wildtype zebrafish),spleen size [1],spleen size [2],blast counts in KM ([3]; alone or combined),erythroid cells in KM / erythropoiesis ([3]; alone or combined),neutrophils in KM ([3]; alone or combined),cellularity in KM ([3]; monotherapy),embryonic myelopoiesis (cytochemical staining with SBB) [4]
"CC(C)(C)c1cc(NC(=O)Nc2ccc(-c3cn4c(n3)sc3cc(OCCN5CCOCC5)ccc34)cc2)no1 [quizartinib, Quizartinib]",compatible with normal fish survival,–,–,–,–,–,–,–
"CC(C)(O)CNc1nc(Nc2ccnc(C(F)(F)F)c2)nc(-c2cccc(C(F)(F)F)n2)n1 [enasidenib, Enasidenib]",compatible with normal fish survival,no changes were observed in spleen size,decreased spleen sizes,reduced blast counts in KM,significant increase in neutrophils and erythroid,significant increase in neutrophils,but not enasidenib monotherapy significantly reduced cellularity,ameliorated the increase in myelopoiesis

# From patent US20250324955A1, “ZEBRAFISH MODEL OF HUMAN ACUTE MYELOID LEUKEMIA AND METHOD OF USE THEREOF” (Versitech Limited, priority 2022, published 2025)
